The text below walks through data of patent US20230382886A1, “CONJUGATED TLR7 AND NOD2 AGONISTS” (UNIVERZA V LJUBLJANI, priority 2020, published 2023).

Data set [1] relates to CD4 positive T-lymphocytes. Briefly: Antigen presentation of BMDCs to CD4+ T-lymphocytes. In kind it is cell-based, mouse. Particulars: for ability to promote BMDC antigen presentation to CD4 positive T-lymphocytes (ratio of CD25 positive T-lymphocytes with low CFSE fluorescence): 100 nM, ovalbumin, FIG. 3; for dose dependence of BMDC antigen presentation to CD4 positive T-lymphocytes: 1 nM to 1 μM, FIG. 5. The protocol: (§1) The effect of the conjugated compounds of the invention on antigen presentation of mouse bone marrow derived dendritic cells (BMDCs) to T-lymphocytes was examined.
(§2) BMDCs were obtained by harvesting bone marrow from mouse hind legs. The harvested cells were then cultured for 10 days in the presence of granulocyte-macrophage colony-stimulating factor
(§3) (GM-CSF) to ensure differentiation into dendritic cells. BMDCs were seeded on 96 well microtiter plates at 10.000 cells per well and stimulated in duplicates with conjugated compounds and ovalbumin (50 μg/mL) at 37° C. for 20 h. After this period, the supernatants were removed and either CD4+ T-Iymphocytes or CD8+ T-Iymphocytes were added.
(§4) The compounds were prepared as follows: First, stock solutions of the conjugated compounds were prepared in DMSO at a 1 mM concentration. The working dilutions of the conjugated compounds in medium were then added directly to BMDCs to ensure final concentrations ranging from 1 nM to 1 μM.
(§5) CD4+ and CD8+ T-lymphocytes were obtained from single-cell suspensions of spleens from OT-II and OT-I transgenic mice, respectively. These express a T-cell receptor that pairs with the CD4 or CD8 co-receptors and is specific for the ovalbumin antigen. After harvesting the spleen, CD4+ or CD8+ cell fractions were enriched with MACS separation technology (Miltenyi Biotec CD4+ T Cell Isolation Kit or CD8+ T Cell Isolation Kit, respectively). T-lymphocytes were then stained with CFSE and added to BMDCs at 50.000 cells per well.
(§6) After co-culturing the BMDCs and T-lymphocytes for 72 hours at 37° C., T-lymphocyte activation was assessed with flow cytometry by measuring the expression of CD25, characteristic for activated T-lymphocytes. Concurrently, the intensity of CFSE fluorescence was measured to evaluate T-lymphocyte proliferation. […] SG48, SG144 and RH32 were the tested conjugated compounds of the invention. Medium was used as a negative control. LPS (1 μg/mL) was used as the positive control. Intermediary compound SG8 was employed as a known NOD2 agonist of the desmuramylpeptide type (Gobec et al. 2018). Intermediary compound SG43 was employed as a known TLR7 agonist of the purine type (Akinbobuyi et al. 2016). The combination of SG8 and SG43 was employed to compare the activity of conjugated compounds against an unconjugated mixture of NOD2 and TLR7 agonists.

A further data set deals with MEC-1 cancer cell line. Briefly: PBMC cytotoxicity assay against MEC-1 target cells. In kind it is cell-based. Particulars: 1 μM; control medium; FIG. 1. The protocol: (§7) The TLR7 and NOD2 conjugated compounds of the invention were tested for their ability to activate the cytotoxic activity of peripheral blood mononuclear cells (PBMCs) towards cancer cell lines. The main effector fraction of PBMCs in this assay are natural killer (NK) cells, which play an essential role in the innate immune system through their direct cytotoxic activity against aberrant cells, especially tumour cells and virally infected cells. The flow cytometry-based method described hereafter measures the PBMC cytotoxic activity against target cancer cell lines by co-incubating PBMCs and cancer cells, which were pre-labelled by carboxyfluorescein succinimidyl ester (CFSE) to distinguish them from effector cells. Successful activation of effector cells by the tested compounds leads to higher degree of cell death in the target cell population.
(§8) Chronic myelogenous leukaemia K562 and chronic B cell leukaemia MEC-1 cell lines were used as target cells in the assay. Both cell lines were pre-cultured for at least 10 days before the assay was performed. Immediately prior to the addition of target cells to PBMCs, target cells were stained with CFSE at 2 μM for 15 minutes at 37° C. in the dark. Cells were then washed with medium and resuspended at 200.000 cells/mL.
(§9) PBMCs were isolated from whole blood by centrifugation with the Ficoll-Paque density gradient solution. After centrifugation, PBMCs were washed twice with PBS and resuspended in medium at 4.000.000 cells/mL. To perform the assay, PBMCs were seeded on 96 well microtiter plates at 400.000 cells per well and cultured in duplicates at 37° C. for 20 h in the presence of the compounds.
(§10) The compounds were prepared as follows: First, stock solutions of the conjugated compounds were prepared in DMSO at a 1 mM concentration. […]
(§11) After incubating the PBMCs in the presence of compounds, 10.000 CFSE stained target cells were added to each well for a final 40:1 ratio of effector cells versus target cells. After 4 h of co-incubation, cells were stained with the SYTOXTM Blue (Invitrogen) nucleic acid stain and analysed with flow cytometry. […]

Data set [2] has as its system CD8 positive T-lymphocytes. Briefly: Antigen presentation of BMDCs to CD8+ T-lymphocytes. In kind it is cell-based, mouse. Particulars: for ability to promote BMDC antigen presentation to CD8 positive T-lymphocytes (ratio of CD25 positive T-lymphocytes with low CFSE fluorescence): 100 nM, ovalbumin, FIG. 4; for dose dependence of BMDC antigen presentation to CD8 positive T-lymphocytes: 1 nM to 1 μM, FIG. 6. As for the experimental part: as §1, §2, §3, §4, §5, §6

The next data set has as its system K562 cancer cell line. Kind of data set: PBMC cytotoxicity assay against K562 target cells. In kind it is cell-based. Particulars: 1 μM; control medium; FIG. 2. As for the experimental part:
as §7, §8, §9, §10, §11

The structures appear in SMILES notation.

Regarding `CCCCOc1nc(N)c2nc(O)n(Cc3ccc(C(=O)NCCOCCOCCNC(=O)CC[C@@H](NC(=O)[C@@H](NC(=O)CNC(=O)/C=C/c4ccc(O)c(OC)c4)C(C)C)C(=O)OCC)cc3)c2n1` [RH32], the “ability to promote BMDC antigen presentation to CD4 positive T-lymphocytes (ratio of CD25 positive T-lymphocytes with low CFSE fluorescence)” value in data set [1] is reported as “promote BMDC antigen presentation”. In the data set with MEC-1 cancer cell line, the “ability to activate the cytotoxic activity of PBMCs against the MEC-1 cancer cell line (ratio against the control)” value was “activate the cytotoxic activity of PBMCs”. For the same compound, in data set [2], the “ability to promote BMDC antigen presentation to CD8 positive T-lymphocytes (ratio of CD25 positive T-lymphocytes with low CFSE fluorescence)” value was “promote BMDC antigen presentation”. For the same compound, in the data set with K562 cancer cell line, the “ability to activate the cytotoxic activity of PBMCs against the K562 cancer cell line (ratio against the control)” value is listed as “activate the cytotoxic activity of PBMCs”.
Take `CCCCOc1nc(N)c2nc(O)n(Cc3ccc(C(=O)NCCCCCC(=O)Oc4ccc(/C=C/C(=O)NCC(=O)N[C@H](C(=O)N[C@H](CCC(=O)OCC)C(=O)OCC)C(C)C)cc4OC)cc3)c2n1` [SG48, Diethyl ((E)-3-(4-((6-(4-((6-amino-2-butoxy-8-hydroxy-9H-purin-9-yl)methyl)benzamido)hexanoyl)-oxy)-3-methoxyphenyl)acryloyl)glycyl-L-yalyl-D-glutamate]: in data set [1], the “dose dependence of BMDC antigen presentation to CD4 positive T-lymphocytes” value is “dose-dependent” and the “ability to promote BMDC antigen presentation to CD4 positive T-lymphocytes (ratio of CD25 positive T-lymphocytes with low CFSE fluorescence)” value is “promote BMDC antigen presentation”. Besides, the “ability to activate the cytotoxic activity of PBMCs against the MEC-1 cancer cell line (ratio against the control)” value in the data set with MEC-1 cancer cell line is on record as “activate the cytotoxic activity of PBMCs”. In data set [2], the “dose dependence of BMDC antigen presentation to CD8 positive T-lymphocytes” value was “dose-dependent” and the “ability to promote BMDC antigen presentation to CD8 positive T-lymphocytes (ratio of CD25 positive T-lymphocytes with low CFSE fluorescence)” value is “promote BMDC antigen presentation”. In the data set on K562 cancer cell line, the “ability to activate the cytotoxic activity of PBMCs against the K562 cancer cell line (ratio against the control)” value was “activate the cytotoxic activity of PBMCs”.
With `CCCCOc1nc(N)c2nc(O)n(Cc3ccc(C(=O)NCCOCCNC(=O)CC[C@@H](NC(=O)[C@@H](NC(=O)CNC(=O)/C=C/c4ccc(O)c(OC)c4)C(C)C)C(=O)OCC)cc3)c2n1` [SG144, Ethyl N5-(2-(2-(4-((6-amino-2-butoxy-8-hydroxy-9H-purin-9-yl)methyl)benzamido)ethoxy)ethyl)-N2-((E)-3-(4-hydroxy-3-methoxyphenyl)acryloyl)glycyl-L-yalyl-D-glutaminate], in data set [1], the “dose dependence of BMDC antigen presentation to CD4 positive T-lymphocytes” value is recorded as “dose-dependent” and the “ability to promote BMDC antigen presentation to CD4 positive T-lymphocytes (ratio of CD25 positive T-lymphocytes with low CFSE fluorescence)” value is reported as “promote BMDC antigen presentation”. For the same compound, the “ability to activate the cytotoxic activity of PBMCs against the MEC-1 cancer cell line (ratio against the control)” value with MEC-1 cancer cell line was “activate the cytotoxic activity of PBMCs”. In data set [2], the “dose dependence of BMDC antigen presentation to CD8 positive T-lymphocytes” value is reported as “dose-dependent” and the “ability to promote BMDC antigen presentation to CD8 positive T-lymphocytes (ratio of CD25 positive T-lymphocytes with low CFSE fluorescence)” value was “promote BMDC antigen presentation”. In addition, in the data set with K562 cancer cell line, the “ability to activate the cytotoxic activity of PBMCs against the K562 cancer cell line (ratio against the control)” value was “activate the cytotoxic activity of PBMCs”.
